How the values were obtained:
Format in all cases: cell-based, human
p21 mRNA [1] = experiment: drug-induced p21 mRNA expression in whole blood of healthy adults; details: for kinetics of p21 induction / levels of p21 mRNA upon stimulation: 0-8 hours at 37° C., 20 μM BLM; for p21 mRNA expression: healthy leukocytes, 2 hours at 37° C. (FIG. 1)
From the text: (§1) Blood was obtained from healthy adults and from two leukemic non-Hodgkin's malignant lymphoma patients. U937, KG-1, and Jurkat cells were obtained from American Type Culture Collection (ATCC, Manassas, Va.), and maintained in RPMI 1640 supplemented with 10% fetal calf serum. Of these, U937 cells are a human histiocytic lymphoma cell line, KG-1 cells are a human bone marrow myelogenous leukemia cell line, and Jurkat cells are a human T-cell lymphoblast-like, leukemia derived cell line. […] For human experiments, blood aliquots were stimulated with various anti-cancer drugs at 37° C. for 2 hours, then both p21 and BAX mRNA were measured. The anti-cancer drugs used in this study were clinical drugs, and the concentration of each drug was adjusted to typical blood levels 3-6 hours after intravenous administration.
(§2) The mRNA and cDNA were prepared from whole blood. In brief, home-made 96-well filterplates were placed over collection plates, and 150 μl 5 mM Tris, pH 7.4, was applied. Following centrifugation at 120×g for 1 min at 4° C., 50 μl of blood samples were applied to each well and immediately centrifuged at 120×g for 2 min at 4° C., followed by washing of each well with 300 μl PBS once with centrifugation at 2000×g for 5 min at 4° C. Then, 60 μl stock lysis buffer, containing for example 0.5% N-Lauroylsarcosine, 4×SSC, 10 mM Tris HCl, pH 7.4, 1 mM EDTA, 0.1% IGEPAL CA-630, and 1.791 M guanidine thiocyanate, supplemented with 1% 2-mercaptoethanol (Bio Rad, Hercules, Calif., USA), 0.5 mg/ml proteinase K (Pierce, Rockford, Ill., USA), 0.1 mg/ml salmon sperm DNA (5 Prime Eppendorf/Brinkmann, Westbury, N.Y., USA), 0.1 mg/ml E. coli tRNA (Sigma), a cocktail of 10 mM each of the specific reverse primers shown in Table 1, and standard RNA34 oligonucleotides, were applied to the filterplates, followed by incubation at 37° C. for 10 min. The filterplates were then placed over oligo(dT)-immobilized microplates (GenePlate, RNAture), and centrifuged at 2000×g for 5 min at 4° C. Following overnight storage at 4° C., the microplates were washed with 100 μl plain lysis buffer 3 times, followed by 150 μl of wash buffer (0.5 M NaCl, 10 mM Tris, pH 7.4, 1 mM EDTA) 3 times at 4° C. The cDNA was directly synthesized in each well by adding 30 μl buffer containing 1× RT-butter, 1.25 mM each of dNTP, 4 units rRNasin, and 80 units of MMLV reverse transcriptase (Promega) (without primers), and incubation at 37° C. for 2 hours. The specific primer-primed cDNA existed in solution, and oligo(dT)-primed cDNA stayed immobilized in the microplate. For TaqMan PCR (FIGS. 1, 3, 4), the resultant 4 μl cDNA solution was directly transferred to 384-well PCR plates, to which 5 μl of TaqMan universal master mix (ABI) and 1 μl oligonucleotide cocktail (15 μM each of forward and reverse primer, and 3-6 μM TaqMan probe) were applied, and PCR was conducted in PRISM 7900HT (ABI), with one cycle of 95° C. for 10 min followed by 45 cycles of 95° C. for 30 sec, 55° C. for 30 sec, and 60° C. for 1 min. For SYBR Green PCR (see FIG. 6), cDNA was diluted 3-4 fold in water, and 4 μl cDNA solution was directly transferred to 384-well PCR plates, to which 5 μl of a master mix (BioRad, Hercules, Calif.) and 1 μl of oligonucleotide cocktail (15 μM each of forward and reverse primer) were applied, and PCR was conducted in PRISM 7900HT (ABI), with one cycle of 95° C. for 10 min followed by 45 cycles of 95° C. for 30 sec and 60° C. for 1 min. Each gene was amplified in separate wells. The Ct was determined by analytical software (SDS, ABI).
In 8-well strip microtubes, 1.4 μl of 50× concentrations of drugs or controls (phosphate buffered saline (PBS) or DMSO) were added, and stored at −20° C. until use. […] Seventy μl of fresh heparinized whole blood was added into each well in triplicate, and incubated at 37° C. for 2-8 hours with the cap closed. For radiation treatment, blood was stimulated at designated doses using cesium-137.

BAX mRNA = experiment: drug-induced BAX mRNA expression in whole blood of healthy adults; details: for Bax induction: 20 μM BLM or 100 μM VP-16, 4 hours at 37° C., ΔCt smaller than p21, not induced in 1 or 2 individuals (FIG. 6); for BAX responses compared with p21 and PUMA: 100 μM VP-16 or 20 μM BLM, 2 hours at 37° C., p<0.01 (FIG. 14)
From the text: as §1
as §2, with “For TaqMan PCR (FIGS. 1, 3, 4), the resultant 4 μl cDNA solution was directly transferred to 384-well PCR plates, to which 5 μl of TaqMan universal master mix (ABI) and 1 μl oligonucleotide cocktail (15 μM each of forward and reverse primer, and 3-6 μM TaqMan probe) were applied, and PCR was conducted in PRISM 7900HT (ABI), with one cycle of 95° C. for 10 min followed by 45 cycles of 95° C. for 30 sec, 55° C. for 30 sec, and 60° C. for 1 min. For SYBR Green PCR (see FIG. 6), cDNA was diluted 3-4 fold in water, and 4 μl cDNA solution was directly transferred to 384-well PCR plates, to which 5 μl of a master mix (BioRad, Hercules, Calif.) and 1 μl of oligonucleotide cocktail (15 μM each of forward and reverse primer) were applied, and PCR was conducted in PRISM 7900HT (ABI), with one cycle of 95° C. for 10 min followed by 45 cycles of 95° C. for 30 sec and 60° C. for 1 min. Each gene was amplified in separate wells.” left out, “ABI). […]” for “ABI).”

p21 mRNA [2] = experiment: drug-induced p21 mRNA expression in whole blood of leukemia and lymphoma patients
[3] = heparinized whole blood, 100 μM VP-16 (FIG. 5B)

Compound | concentration at which significant induction of p21 was observed (p21 mRNA [1]; 0-20 μM BLM, 4 hours at 37° C. (FIG. 7)) | p21 induction (p21 mRNA [1]; BLM at concentrations as low as 0.2 μM, 2 hours at 37° C., all cases (FIG. 10A)) | kinetics of p21 induction (p21 mRNA [1]; [3]) | levels of p21 mRNA upon stimulation (p21 mRNA [1]; [3]) | Bax induction (BAX mRNA) | BAX responses compared with p21 and PUMA (BAX mRNA) | BLM-induced p21 responses (ΔCt) compared with healthy donors (p21 mRNA [2]; 1 μM BLM, 2 hours at 37° C., 13 leukemia and lymphoma patients vs 27 healthy donors, p=0.000002 (FIG. 15)) | p21 induction (p21 mRNA [1]; 10 μM VP-16, 2 hours at 37° C. (FIG. 9A)) | p21 expression (p21 mRNA [1]; 100 μM VP-16, 2 hours at 37° C. (FIG. 9A)) | p21 mRNA expression (p21 mRNA [1]; 10 μM etoposide) | p21 mRNA expression (p21 mRNA [1]; 100 μM etoposide) | peak of transient p21 induction (p21 mRNA [1]; [3]) [h] | p21 mRNA induction (p21 mRNA [2]; leukemic lymphoma patient 2, 2 hours at 37° C., drug concentrations (FIG. 3))
bleomycin [BLM] | more than 0.1 VM | induced | increased continuously for 8 hours | significantly increased | induced | significantly less than those of p21 and PUMA | less than those of healthy control |  |  |  |  |  | 
COc1cc([C@@H]2c3cc4c(cc3[C@@H](O[C@@H]3O[C@@H]5CO[C@@H](C)O[C@H]5[C@H](O)[C@H]3O)[C@H]3COC(=O)[C@H]23)OCO4)cc(OC)c1O [VP-16, etoposide] |  |  | transient induction | significantly increased | induced | significantly less than those of p21 and PUMA |  | failed to induce p21 in many cases | majority of individuals exhibited increased p21 expression | no significant p21 mRNA expression | expressed significantly | 2 to 4 | induced
